# Experimental data as given in PMC6130205 (Journal of medicinal chemistry, 2018).
# Assays:
# Type in all cases: biochemical
# SIRT1 [1] = target: T1, SIRT1 (Homo sapiens, UniProt Q96EB6); assay: fluorometric substrate cleavage
# T1 sequence (Q96EB6 2-747): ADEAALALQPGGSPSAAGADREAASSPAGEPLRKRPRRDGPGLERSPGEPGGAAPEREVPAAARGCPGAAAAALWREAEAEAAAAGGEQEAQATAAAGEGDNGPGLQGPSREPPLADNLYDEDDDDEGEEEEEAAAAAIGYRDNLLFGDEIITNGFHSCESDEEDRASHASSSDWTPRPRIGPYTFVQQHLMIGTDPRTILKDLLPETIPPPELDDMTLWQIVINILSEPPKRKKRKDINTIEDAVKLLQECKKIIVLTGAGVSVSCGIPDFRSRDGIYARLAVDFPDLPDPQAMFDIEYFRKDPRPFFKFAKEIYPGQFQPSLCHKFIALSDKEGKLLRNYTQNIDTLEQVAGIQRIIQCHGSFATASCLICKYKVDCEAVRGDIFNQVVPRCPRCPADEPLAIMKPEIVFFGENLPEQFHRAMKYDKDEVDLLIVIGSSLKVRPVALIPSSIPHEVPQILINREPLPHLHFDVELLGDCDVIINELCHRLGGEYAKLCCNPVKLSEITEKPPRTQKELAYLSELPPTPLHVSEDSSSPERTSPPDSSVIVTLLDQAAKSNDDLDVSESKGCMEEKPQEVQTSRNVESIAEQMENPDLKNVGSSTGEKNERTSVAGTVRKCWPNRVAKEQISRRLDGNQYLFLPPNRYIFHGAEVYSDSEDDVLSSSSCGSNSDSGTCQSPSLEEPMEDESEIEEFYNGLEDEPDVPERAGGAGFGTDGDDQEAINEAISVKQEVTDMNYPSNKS
# SIRT1 [2] = target: T1, SIRT1; assay: fluorometric substrate cleavage kinetics
# SIRT1 [3] = target: T1, SIRT1; assay: in vitro SIRT1 reaction monitored by […] NMR
Compound,fluorometric substrate cleavage (Kcat) (SIRT1 [1]),fluorometric substrate cleavage kinetics (Kcat/Km) (SIRT1 [2]),other results
"Cc1cc(=O)oc2cc(NC(=O)[C@H](CCCCNC(=O)c3ccccc3)NC(=O)OCc3ccccc3)ccc12 [compound 1, Benzyl (6-Benzamido-1-((4-methyl-2-oxo-2H-chromen-7-yl)-amino)-1-oxohexan-2-yl)carbamate]",(0.41 ± 0.014) × 10^−3 s^−1,–,–
"Cc1cc(=O)oc2cc(NC(=O)[C@H](CCCCNC(=O)c3ccccc3F)NC(=O)OCc3ccccc3)ccc12 [compound 2, Benzyl (6-(2-Fluorobenzamido)-1-((4-methyl-2-oxo-2H-chromen-7-yl)amino)-1-oxohexan-2-yl)carbamate]",–,26.02 ± 7.07 M⁻¹ s⁻¹,–
"Cc1cc(=O)oc2cc(NC(=O)[C@H](CCCCNC(=O)c3cccc(F)c3)NC(=O)OCc3ccccc3)ccc12 [compound 3, Benzyl (6-(3-Fluorobenzamido)-1-((4-methyl-2-oxo-2H-chromen-7-yl)amino)-1-oxohexan-2-yl)carbamate]",–,63.39 ± 4.32 M⁻¹ s⁻¹,–
"Cc1cc(=O)oc2cc(NC(=O)[C@H](CCCCNC(=O)c3ccc(F)cc3)NC(=O)OCc3ccccc3)ccc12 [compound 4, Benzyl (6-(4-Fluorobenzamido)-1-((4-methyl-2-oxo-2H-chromen-7-yl)amino)-1-oxohexan-2-yl)carbamate]",–,16.08 ± 1.32 M⁻¹ s⁻¹,–
"CCc1ccc(C(=O)NCCCC[C@H](NC(=O)OCc2ccccc2)C(=O)Nc2ccc3c(C)cc(=O)oc3c2)cc1 [compound 5, Benzyl (6-(4-Ethylbenzamido)-1-((4-methyl-2-oxo-2H-chromen-7-yl)amino)-1-oxohexan-2-yl)carbamate]",the 4-ethyl substitution increased the Kcat for SIRT1 but only minimally,–,–
Cc1cc(=O)oc2cc(NC(=O)[C@H](CCCCNC(=O)Cc3ccccc3)NC(=O)OCc3ccccc3)ccc12 [compound 7],(0.37 ± 0.02) × 10^−3 s^−1,–,–
"O=C(CCCCCNC(=O)c1ccccc1F)Nc1ccccc1 [compound 12, 2-FBzAHA]",–,–,in vitro SIRT1 reaction monitored by 19F NMR (SIRT1 [3]): The enzymatic cleavage of 2F-BzAHA by SIRT1 was validated using an in vitro SIRT1 enzyme assay
